US20150329505A1, “A FLUORESCENT COMPOSITION FOR USE IN MARKING OBJECTS, SUCH AS FLOWERS” (BIOCONST PTY LTD, priority 2012, published 2015)
Structures can show the parent of a compound that is named as a salt. Where two headings read alike, the source gives them in different places. Blank lines part the entries; values can stand above or below the compound they belong to.

Columns and labels:
[1] = Autoclaving of fluorophore solutions; format: physicochemical; settings: 0.5% (w/v) of the sugar, 0.1% pyranine, 0.1% sodium bicarbonate, autoclaved at 121° C.
Protocol: Fluorophore solution containing sugar caused the increase in growth of bacteria and fungus.
Fluorophore solution was prepared containing 0.1% (w/v) pyranine, 0.5% (w/v) sucrose, 0.1% (w/v) sodium bicarbonate. A similar solution was prepared with the same concentration of fructose. A small quantity of both the solutions prepared was kept aside for future use. Both the solutions were autoclaved at 121° C. in an Atherton Squirrel autoclave. This was then allowed to cool to room temperature and sprayed on flowers. Solutions which were kept aside previously (and which were not auto-claved) were also sprayed onto flowers. A negative control with no spray was also used to monitor vase life.

flowers [2] = settings: in vivo
Protocol: (§2) The above solutions were prepared by adding the fluorophore to tap water, in order to test the properties of the fluorophores in a non-sterilised, non-purified aqueous solution. The solutions were placed into a spray device for application to the surface of the relevant plants.
(§3) Solutions were sprayed onto chrysanthemums and roses and allowed to dry overnight at room temperature.

rose flower = assay: Uptake of fluorophore by cut flowers; format: in vivo; settings: cut stems in 0.1% (w/v) pyranine, 0.5% (w/v) sucrose overnight
Protocol: (§1) Freshly cut stems of flowers (roses and chrysanthemums) were prepared and the ends of the stems placed in a solution of 0.1% (w/v) pyranine, 0.5% (w/v) sucrose. The cut end of the flowers was left in the solution overnight and uptake of the fluorophore viewed under UVA light.

chrysanthemum flower = assay: Uptake of fluorophore by cut flowers; format: in vivo; settings: cut stems in 0.1% (w/v) pyranine, 0.5% (w/v) sucrose overnight
Protocol: as §1

flowers [3] = assay: Effect of sprayed solutions on wilting and vase life of flowers
Protocol: as §2, §3

[4] = Effect of time of UV exposure on fluorescence; format: physicochemical; settings: 0.1% (w/v) sprayed on flowers, 6 hours, UV torch 50,000 μW/cm2
Protocol: The effect of long term exposure of UV light was tested on flowers sprayed with fluorophore
Flowers were sprayed with 0.1% (w/v) pyranine solution. The flowers were allowed to dry overnight. A UV torch Optimax™ 365, having an intensity of 50,000 μW/cm2 was shone on the sprayed flowers.

[5] = Fluorescence emitted by sprayed flowers when excited by UV light; settings: 0.1% pyranine, 0.5% sugar, 0.1% sodium bicarbonate, pH 7.72, dried overnight, then 1 mM, 1.5 mM and 2 mM HCl

appearance of the solution after autoclaving [1]: dark brown
SMILES: O=C(CO)[C@@H](O)[C@H](O)[C@H](O)CO [fructose]

SMILES: O=C1OC2(c3ccc(O)cc3Oc3cc(O)ccc32)c2ccccc21 [Fluorescein, reference compound]
wilting of flowers and vase life (flowers [2]): caused wilting of flowers and reduced vase life

SMILES: O=S(=O)([O-])c1cc(O)c2ccc3c(S(=O)(=O)[O-])cc(S(=O)(=O)[O-])c4ccc1c2c34.[Na+].[Na+].[Na+] [pyranine, 8-Hydroxypyrene-1,3,6-trisulfonic acid trisodium salt]
uptake of the fluorophore viewed under UVA light (rose flower): The veins in the petals of the flower demonstrate fluorescence
uptake of the fluorophore viewed under UVA light (chrysanthemum flower): The veins in the petals of the flower demonstrate fluorescence
vase life of flower (flowers [3]; 0.05% (w/v) in tap water, sprayed onto chrysanthemums and roses): did not affect the vase life of flower
vase life (flowers [3]; 0.05% to 0.5% (w/v) in tap water): did not affect vase life
change of fluorescence on continuous UV exposure [4]: no visible change in the colour of fluorescence

SMILES: COC(=O)c1ccc(O)cc1 [methylparaben]
wilting and vase life (flowers [2]): caused wilting of the flowers and reduced the vase-life of the flower

appearance of the solution after autoclaving [1]: fluorescent green
SMILES: OC[C@H]1O[C@@](CO)(O[C@H]2O[C@H](CO)[C@@H](O)[C@H](O)[C@H]2O)[C@@H](O)[C@@H]1O [sucrose]

SMILES: O=C([O-])O.[Na+] [sodium bicarbonate]
vase life (flowers [2]): did not affect the vase-life of the flower

change of fluorescence colour after acidic spray [5]: no change in colour to fluorescent blue
SMILES: Cl [HCl]

SMILES: O=C([O-])c1ccccc1-c1c2cc(Br)c(=O)c(Br)c-2oc2c(Br)c([O-])c(Br)cc12.[Na+].[Na+] [Eosin Y, reference compound]
wilting of flowers and vase life (flowers [3]; 0.5% (w/v) in tap water, sprayed onto chrysanthemums and roses, dried overnight): caused wilting of flowers and reduced vase life
